{
  "source": "patent US20230372374A1",
  "about": "“VETERINARY PHARMACEUTICAL FORMULATIONS” (INCREVET, INC., priority 2022, published 2023)",
  "key": {"[1]": {"assay": "Pharmacokinetics in cats after capsule dosing", "format": "in vivo, cat", "protocol": "Capsules were evaluated using cohorts of four laboratory cats that were administered test article at multiple dose levels. The test article was prepared in size 4 gelatin capsules and administered by mouth to animals that had been fasted 12 h. The capsules were loaded with 5% bexagliflozin (w/w) in microcrystalline cellulose for the 0.1, 0.3 and 1.0 mg kg^−1 dose levels, and with bexagliflozin alone for the 3.0 and 10.0 mg kg^−1 dose levels. The cats were provided with food ad libitum 2 hours after dosing.\nBlood samples were collected from the acral vein at the scheduled time points. Samples of 0.1 to 0.3 mL were drawn into 1.5 mL tubes containing dipotassium EDTA as an anticoagulant. The samples were immediately mixed by gently inverting the tube approximately 8 times. Immediately following mixing, the tubes were placed on crushed ice and kept chilled until centrifugation. Samples were centrifuged within 1 hour of collection. Following centrifugation, the tubes were returned to crushed ice and supernatants transferred into microcentrifuge tubes and frozen. The tubes were stored frozen in a −20° C. freezer at the testing facility prior to shipment for analysis. Plasma bexagliflozin concentration was measured by an LC-MS/MS method. Separations were performed using an Agilent 1200 equipped with a Thermo Betasil C18 50×2.1 mm, 5 μm packing column or a Phenomenex Gemini C18 50×4.5 mm, 5 μm packing column. Analyte detection was performed with an ABI 4000 or AB Sciex QTRAP 5500 mass spectrometer.\nThe volume of distribution was relatively large, ranging from 5.5 to 11.9 L kg^−1, with no dose-dependent trend. […] The majority of the variation in half-life was attributable to variation in the volume of distribution, and the clearance was relatively constant at 1.46±0.24 L h^−1 kg^−1. The AUC0-24 was proportional to dose over the entire dosing range and a linear regression with a constrained intercept of 0 ng h mL^−1 at 0 mg kg^−1 gave a slope of 762 ng h mL^−1 per mg kg^−1 of dose (FIG. 2)."}, "renal glucose reuptake [2]": {"system": "renal glucose reuptake", "assay": "Urinary glucose excretion in cats after capsule dosing", "format": "in vivo, cat", "protocol": "The pharmacodynamics of inhibitors of renal glucose reuptake can be easily monitored by measurement of urinary glucose excretion (UGE). The sodium-linked glucose transporters SGLT1 and SGLT2 are expressed in the second and first segments, respectively, (pars recta and pars convoluta) of the renal proximal tubule.\nAs described above, 4 laboratory cats were administered bexagliflozin as either a blend with microcrystalline cellulose or as pure bexagliflozin, in each case in gelatin capsules. Bexagliflozin induced a significant glucosuria in healthy cats. At 3 mg kg^−1, total urinary glucose excreted over a period of 24 hours was 4.78 g (Table 14). […] Glucosuria following test article administration in the fasted state was higher than glucosuria following administration in the fed state (Table 14, bottom row)."}, "renal glucose reuptake [3]": {"system": "renal glucose reuptake", "assay": "Urinary glucose excretion in cats after DEGEE/glycerol liquid formulations", "format": "in vivo, cat", "conditions": "daily oral DEGEE/glycerol liquid formulations F16D-V1 to F16D", "protocol": "The pharmacodynamics produced by liquid formulations of bexagliflozin were also evaluated. Cats were fed daily with Whiskas Cat Food in Can (Ocean Fish) and bexagliflozin was delivered orally daily with different formulations derived from F16D as shown in Table 15.\nCats were dosed with F16D-V0 (0.1 mL kg^−1) for two days (vehicle control), and urine samples were collected on the second day for glucose excretion analysis. Similarly, cats were dosed daily with F16D-V1 (0.1 mL kg^−1) from Day 1 to Day 4 at 0.1 mg kg^−1 dose, and urine samples were collected from Day 2 to Day 4 for glucose excretion analysis; cats were dosed daily with F16D-V2 (0.1 mL kg^−1) from Day 5 to Day 8 at 0.3 mg kg^−1 dose, and urine samples were collected from Day 6 to Day 8 for glucose excretion analysis; cats were dosed daily with F16D-V3 (0.1 mL kg^−1) from Day 9 to Day 12 at 1 mg kg^−1 dose, and urine samples collected from Day 10 to Day 12 for glucose excretion analysis; and cats were dosed daily with F16D (0.1 mL kg^−1) from Day 13 to Day 16 at 3 mg kg^−1 dose, and urine samples were collected from Day 14 to Day 16 for glucose excretion analysis.\nUrine samples were analyzed using a HITACHI 7600-010 automatic biochemistry analyzer. Urine glucose and creatinine concentrations were measured. […]"}, "renal glucose reuptake [4]": {"system": "renal glucose reuptake", "assay": "Urinary glucose excretion in cats after tablet dosing", "format": "in vivo, cat", "conditions": "healthy cats, tablets, corrected for assay", "protocol": "A dose range-finding study was conducted with tablets prepared using a polacrilex resin slurry process. For the evaluation of pharmacodynamics, animals were fed canned food, to promote a constant daily urine volume and proper collection of urine samples. Water was supplied ad libitum.\nAll animals were administered test article at each dose level. The 2.5 mg dose was delivered as half of one 5 mg tablet cleaved with a pill cutter. The 5 mg dose was delivered as one 5 mg tablet per cat, the 10 mg dose was delivered as one 10 mg tablet per cat and the 30 mg dose was delivered as two 15 mg tablets per cat. For the pharmacokinetics study, test articles were dosed after the sampling of blood at pre-dose (0 h) time point. For the pharmacodynamics study, test articles were administered daily at 9:00-9:30 for four consecutive days and urine excreted by the animals for the last three days (after the dose and before next dose) was collected.\nCollections were performed for three days to diminish the consequences of day-to-day variation of urine excretion. […] For convenience in referring to dose levels, the nominal dosages are used in this report, but calculations of dose-response relationships in mg kg^−1 were based on the measured bexagliflozin content.\nThe pharmacodynamics elicited by bexagliflozin delivered by tablets was also evaluated. […]"}, "[5]": {"assay": "Solubility of bexagliflozin in aqueous media", "format": "physicochemical", "conditions": "aqueous media at 37° C."}, "[6]": {"conditions": "humans; cited from earlier work"}},
  "data": [
    {"smiles": "OC[C@H]1O[C@@H](c2ccc(Cl)c(Cc3ccc(OCCOC4CC4)cc3)c2)[C@H](O)[C@@H](O)[C@@H]1O", "note": "[Bexagliflozin, (2S,3R,4R,5S,6R)-2-(4-chloro-3-(4-(2-cyclopropoxyethoxy)benzyl)phenyl)-6-(hydroxymethyl)tetrahydro-2H-pyran-3,4,5-triol]", "values": [
      {"measurement": "slope of AUC0-24 versus dose", "setting": "[1]; cats, capsules, linear regression with constrained intercept of 0", "result": 762, "unit": "ng h mL^−1 per mg kg^−1"},
      {"measurement": "Tmax", "setting": "[1]; in vivo, po", "result": "36 to 72", "unit": "min"},
      {"measurement": "clearance", "setting": "[1]; in vivo, po", "result": "1.46 ± 0.24", "unit": "L/h/kg"},
      {"measurement": "half-life", "setting": "[1]; in vivo, po", "result": "174 to 354", "unit": "min"},
      {"measurement": "volume of distribution", "setting": "[1]; in vivo, po", "result": "5.5 to 11.9", "unit": "L/kg"},
      {"measurement": "total urinary glucose excreted over a period of 24 hours", "setting": "renal glucose reuptake [2]; cats, capsule, 3 mg kg^−1", "result": 4.78, "unit": "g"},
      {"measurement": "ED50 of glucosuria", "setting": "renal glucose reuptake [2]; healthy cats, capsules", "result": 0.56, "unit": "mg/kg"},
      {"measurement": "half-maximal dose (ED50) for daily glucose excretion", "setting": "renal glucose reuptake [3]", "result": 0.383, "unit": "mg/kg/day"},
      {"measurement": "maximum daily glucose excretion (predicted)", "setting": "renal glucose reuptake [3]; 0.1 to 3 mg kg^−1", "result": 7854, "unit": "mg"},
      {"measurement": "ED50 for UGE", "setting": "renal glucose reuptake [4]", "result": 0.505, "unit": "mg/kg"},
      {"measurement": "solubility", "setting": "[5]", "result": "~500", "unit": "µg/mL"},
      {"measurement": "hazard ratio for the reduction in major adverse cardiovascular events", "setting": "[6]", "result": 0.774}
    ]}
  ]
}
